These results are taken from patent US8399676B2, “Piperidine derivatives” (Hoffman-La Roche Inc., priority 2009, dated 2013).

One may read the IC50 as the concentration at which inhibition is half-maximal.

The structures appear in SMILES notation. Structures can show the parent of a compound that is named as a salt.

The experiment concerns the target T1, human HSL (Homo sapiens, UniProt Q05469).
T1 construct: generate a full length human HSL ORF with a 3′-His6 tag; His6 (C); made in house; host or cells: High 5 insect cells (baculovirus, pFast-BAC)
T1 sequence (Q05469 1-1076): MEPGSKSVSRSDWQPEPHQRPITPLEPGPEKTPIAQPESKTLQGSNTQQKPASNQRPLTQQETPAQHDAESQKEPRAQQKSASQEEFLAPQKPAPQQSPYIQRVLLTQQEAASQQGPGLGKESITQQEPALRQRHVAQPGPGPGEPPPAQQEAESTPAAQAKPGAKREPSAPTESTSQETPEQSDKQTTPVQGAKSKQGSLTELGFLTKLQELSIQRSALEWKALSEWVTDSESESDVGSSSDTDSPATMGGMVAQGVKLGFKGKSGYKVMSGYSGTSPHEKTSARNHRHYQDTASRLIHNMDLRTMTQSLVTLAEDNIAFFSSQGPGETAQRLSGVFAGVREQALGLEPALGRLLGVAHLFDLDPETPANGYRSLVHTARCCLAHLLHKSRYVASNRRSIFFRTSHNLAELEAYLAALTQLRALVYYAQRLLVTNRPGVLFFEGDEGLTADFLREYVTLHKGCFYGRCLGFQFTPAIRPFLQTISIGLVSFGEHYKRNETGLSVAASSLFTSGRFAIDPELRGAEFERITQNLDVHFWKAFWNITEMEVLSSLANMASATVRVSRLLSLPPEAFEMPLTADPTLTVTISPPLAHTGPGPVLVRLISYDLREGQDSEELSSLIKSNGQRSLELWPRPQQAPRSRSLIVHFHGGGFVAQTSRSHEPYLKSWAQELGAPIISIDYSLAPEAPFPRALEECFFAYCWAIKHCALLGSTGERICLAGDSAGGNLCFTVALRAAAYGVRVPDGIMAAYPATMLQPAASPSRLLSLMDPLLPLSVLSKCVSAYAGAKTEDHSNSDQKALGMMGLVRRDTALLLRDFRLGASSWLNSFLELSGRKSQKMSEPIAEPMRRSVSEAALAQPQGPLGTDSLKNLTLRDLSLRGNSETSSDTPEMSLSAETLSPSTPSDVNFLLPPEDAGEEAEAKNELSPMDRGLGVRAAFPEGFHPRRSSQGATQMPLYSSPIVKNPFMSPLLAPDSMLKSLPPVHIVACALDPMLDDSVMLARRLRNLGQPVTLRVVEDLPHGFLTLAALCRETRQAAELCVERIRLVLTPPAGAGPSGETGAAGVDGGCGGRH
The experiment can be described thus: Human Hormone-Sensitive Lipase (HSL) enzyme inhibition assay (colorimetric, DMPT substrate). It is filed as biochemical. Conditions: read-out: HSL hum IC50. The procedure, abridged: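 Full-length human HSL carrying a C-terminal His6 tag was expressed in High 5 insect cells via baculovirus and purified on Ni-NTA. Compounds from 3-fold DMSO series were mixed with 1.5 mM DMPT substrate suspension in 100 mM MOPS pH 7.2 with 0.2 mg/ml fatty acid-free BSA, then enzyme (15 ug/ml) was added for 20 minutes at 37 °C. Released thiol was detected with DTNB plus SDS/Triton X-100 (15 minutes, room temperature) at 405 nm.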
On to `CC(C)c1ccc(CN2CCC(N)(C(=O)Nc3ccc(C(C)C)cc3)CC2)cc1` [Example 115, 4-Amino-1-(4-isopropyl-benzyl)-piperidine-4-carboxylic acid (4-isopropyl-phenyl)-amide; hydrochloride], for which the IC50 amounted to 230 nM.
Then `CCc1ccc(NC(=O)C2(N)CCN(S(=O)(=O)c3ccc(C(F)(F)F)cc3Cl)CC2)cc1` [Example 147, 4-Amino-1-(2-chloro-4-trifluoromethyl-benzenesulfonyl)-piperidine-4-carboxylic acid (4-ethyl-phenyl)-amide], with 430 nM; and `Cc1ccc(NC(=O)C2(N)CCN(C(=O)Nc3ccc(C(C)(C)C)cc3)CC2)cc1` [Example 88, 4-Amino-piperidine-1,4-dicarboxylic acid 1-[(4-tert-butyl-phenyl)-amide]-4-p-tolylamide; hydrochloride], with 370 nM; and `Cc1ccc(S(=O)(=O)N2CCC(N)(C(=O)Nc3ccc(C(C)(C)C)cc3)CC2)cc1` [Example 77, 4-Amino-1-(toluene-4-sulfonyl)-piperidine-4-carboxylic acid (4-tert-butyl-phenyl)-amide; hydrochloride], with 50 nM.
Turning to `O=C(Nc1ccc(OC(F)(F)F)cc1)C1(O)CCN(S(=O)(=O)c2ccccc2F)CC1` [Example 61, 1-(2-Fluoro-benzenesulfonyl)-4-hydroxy-piperidine-4-carboxylic acid (4-trifluoromethoxy-phenyl)-amide], the half-maximal inhibitory concentration (IC50) was 100 nM.
Then `NC1(C(=O)Nc2ccc(Cl)cc2)CCN(S(=O)(=O)c2ccccc2Cl)CC1` [Example 95, 4-Amino-1-(2-chloro-benzenesulfonyl)-piperidine-4-carboxylic acid (4-chloro-phenyl)-amide], with 190 nM; and `CCc1ccc(NC(=O)C2(N)CCN(S(=O)(=O)c3ccccc3C(F)(F)F)CC2)cc1` [Example 145, 4-Amino-1-(2-trifluoromethyl-benzenesulfonyl)-piperidine-4-carboxylic acid (4-ethyl-phenyl)-amide], with 130 nM; and `NC1(C(=O)Nc2ccc(OC(F)F)cc2)CCN(S(=O)(=O)c2ccccc2Cl)CC1` [Example 97, 4-Amino-1-(2-chloro-benzenesulfonyl)-piperidine-4-carboxylic acid (4-difluoromethoxy-phenyl)-amide], with 90 nM.
Under `CC(C)(C)c1ccc(NC(=O)C2(O)CCN(Cc3ccc(C(F)(F)F)cc3)CC2)cc1` [Example 20, 4-Hydroxy-1-(4-trifluoromethyl-benzyl)-piperidine-4-carboxylic acid (4-tert-butyl-phenyl)-amide] stands 320 nM.
